The values below are quoted from earlier work in patent US6310180A, “Method for synthesis of proteins” (Vanderbilt University, priority 1995, dated 2001).

As a reminder, the Ki is the dissociation constant of the complex between target and ligand, obtained from inhibition or displacement.

The data set concerns the target HIV-1 protease (Human immunodeficiency virus type 1 group M subtype B, UniProt P03369). As to conditions: aspartic protease inhibitor "has been shown to inhibit the HIV-1 protease"; added to the ligation solution to prevent autoproteolysis.

Square brackets hold non-standard residues; d marks the D form. Peptide text beside a SMILES is read from it. Sta = CC(C)C[C@H](N)[C@@H](O)CC(=O)O

For the compound `CC(=O)N[C@H](C(=O)N[C@H](C(=O)N[C@@H](CC(C)C)[C@@H](O)CC(=O)N[C@@H](C)C(=O)N[C@@H](CC(C)C)[C@@H](O)CC(=O)O)C(C)C)C(C)C` [acetyl-pepstatin] (Ac-VV[Sta]A[Sta]-OH), the Ki was 20 mM.
